This experiment concerns the target T1, human P2X4 (Homo sapiens, UniProt Q99571).
T1 construct: expressed in transfected cells
T1 sequence (Q99571 1-388): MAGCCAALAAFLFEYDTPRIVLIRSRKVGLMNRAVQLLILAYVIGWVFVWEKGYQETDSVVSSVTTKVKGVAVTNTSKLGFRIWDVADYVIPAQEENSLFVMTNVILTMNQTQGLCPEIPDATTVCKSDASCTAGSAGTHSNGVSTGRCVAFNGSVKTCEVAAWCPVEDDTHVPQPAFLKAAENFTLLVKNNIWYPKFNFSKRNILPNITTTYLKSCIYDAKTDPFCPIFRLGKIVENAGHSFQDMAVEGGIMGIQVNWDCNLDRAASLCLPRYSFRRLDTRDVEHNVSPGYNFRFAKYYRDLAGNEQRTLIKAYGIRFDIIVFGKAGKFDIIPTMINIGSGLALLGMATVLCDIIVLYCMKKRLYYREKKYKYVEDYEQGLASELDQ
Nature of the experiment: Human P2X4 HEK Cell FLIPR Assay. The following applies: HEK293 stably expressing human P2X4, agonist Bz-ATP 3 μM (EC80); for IC50: read-out: Human P2X4 HEK Cells (FLIPR Assay) avg IC50. The experiment is classed as cell-based. The method in brief: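 HEK293 cells stably expressing human P2X4 were loaded with Fluo8-AM (30 min, 37 °C, HBSS/HEPES pH 7.4 with probenecid), then preincubated 30 min at room temperature with compound, 25 μM–1 nM final, 0.5% DMSO. Bz-ATP-evoked calcium fluorescence was read on FLIPR; data were normalized to agonist control and given a four-parameter fit for IC50.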

As a reminder, the IC50 is the point on the concentration scale where inhibition reaches its midpoint.

As for `CC(=O)N(c1ccc(C)c(Cl)c1)c1cc(NC(=O)Cc2c(Cl)cccc2Cl)ccn1` [Example 182, N-(3-Chlor-4-methylphenyl)-N-{4-[2-(2,6-dichlorphenyl)acetamido]pyridin-2-yl}acetamide], the “Human P2X4 HEK Cells (FLIPR Assay) avg Efficacy” value (from here on “Human P2X4 HEK Cells”) came out at 102% and the IC50 amounted to 593 nM.

For the molecule `CC(=O)N(c1ccc(C)c(Cl)c1)c1cc(NC(=O)Cc2c(F)cccc2Cl)ccn1` [Example 183, N-{4-[2-(2-Chlor-6-fluorphenyl)acetamido]pyridin-2-yl}-N-(3-chlor-4-methylphenyl)acetamide], the “Human P2X4 HEK Cells” value turned out to be 101% and the half-maximal inhibitory concentration (IC50) came to 599 nM.

With `CC(=O)N(c1cc(NC(=O)Cc2c(F)cccc2Cl)ccn1)c1ccc(F)c(C)c1C` [Example 184, N-{4-[2-(2-Chlor-6-fluorphenyl)acetamido]pyridin-2-yl}-N-(4-fluor-2,3-dimethylphenyl)acetamide], the “Human P2X4 HEK Cells” value is given as 104% and the IC50 stood at 893 nM.

Consider `CC(=O)N(c1ccccc1)c1cc(NC(=O)Cc2c(Cl)cccc2Cl)cnn1` [Example 185, N-{5-[2-(2,6-dichlorophenyl)acetamido]pyridazin-3-yl}-N-phenylacetamide], for which the “Human P2X4 HEK Cells” value was 101% and the IC50 stood at 438 nM.

Consider `CC(=O)N(c1ccccc1)c1cc(NC(=O)Cc2cccc(F)c2Cl)cnn1` [Example 186, N-{5-[2-(2-chloro-3-fluorophenyl)acetamido]pyridazin-3-yl}-N-phenylacetamide], for which the “Human P2X4 HEK Cells” value is 99% and the IC50 came out at 655 nM.

With `CC(=O)N(c1ccccc1)c1cc(NC(=O)Cc2ccccc2Cl)cnn1` [Example 187, N-{5-[2-(2-chlorophenyl)acetamido]pyridazin-3-yl}-N-phenylacetamide], the “Human P2X4 HEK Cells” value stood at 100% and the IC50 came to 700 nM.

Regarding `CC(=O)N(c1ccccc1)c1cc(NC(=O)Cc2ccc(F)cc2Cl)cnn1` [Example 188, N-{5-[2-(2-chloro-4-fluorophenyl)acetamido]pyridazin-3-yl}-N-phenylacetamide], the “Human P2X4 HEK Cells” value stood at 98% and the half-inhibitory concentration (IC50) is 829 nM.

Consider `CC(=O)N(c1ccc(F)cc1)c1cc(NC(=O)Cc2c(F)cccc2Cl)cnn1` [Example 189, N-{5-[2-(2-chloro-6-fluorophenyl)acetamido]pyridazin-3-yl}-N-(4-fluorophenyl)acetamide], for which the “Human P2X4 HEK Cells” value is 93% and the 50% inhibitory concentration (IC50) was 654 nM.

As to `CC(=O)N(c1ccc(F)cc1)c1cc(NC(=O)Cc2ccc(F)cc2Cl)cnn1` [Example 190, N-{5-[2-(2-chloro-4-fluorophenyl)acetamido]pyridazin-3-yl}-N-(4-fluorophenyl)acetamide], the “Human P2X4 HEK Cells” value was found to be 95% and the IC50 came out at 716 nM.

Take `CC(=O)N(c1ccc(F)cc1)c1cc(NC(=O)Cc2cccc(F)c2Cl)cnn1` [Example 191, N-{5-[2-(2-chloro-3-fluorophenyl)acetamido]pyridazin-3-yl}-N-(4-fluorophenyl)acetamide]: the “Human P2X4 HEK Cells” value was found to be 92% and the IC50 was found to be 739 nM.

`CC(=O)N(c1ccc(F)cc1)c1cc(NC(=O)Cc2ccccc2Cl)cnn1` [Example 192, N-{5-[2-(2-chlorophenyl)acetamido]pyridazin-3-yl}-N-(4-fluorophenyl)acetamide]: the “Human P2X4 HEK Cells” value was 90% and the concentration for half-maximal inhibition (IC50) turned out to be 766 nM.

With `CC(=O)N(c1ccc(F)cc1)c1cc(NC(=O)Cc2c(Cl)cccc2Cl)cnn1` [Example 193, N-{5-[2-(2,6-dichlorophenyl)acetamido]pyridazin-3-yl}-N-(4-fluorophenyl)acetamide], the “Human P2X4 HEK Cells” value turned out to be 93% and the IC50 came out at 868 nM.

As for `CC(=O)N(c1cccc(F)c1)c1cc(NC(=O)Cc2c(Cl)cccc2Cl)cnn1` [Example 194, N-{5-[2-(2,6-dichlorophenyl)acetamido]pyridazin-3-yl}-N-(3-fluorophenyl)acetamide], the “Human P2X4 HEK Cells” value is 96% and the IC50 amounted to 407 nM.

The values above are taken from patent publication US20230257351A1, “SUBSTITUTED N-[…] HAVING P2X4 RECEPTOR ANTAGONISTIC ACTIVITY” (Bayer Aktiengesellschaft, priority 2020, published 2023).
